Earlier results, collected in patent US9682081B2, “Pharmaceutical gastro-retentive solid oral dosage form of nilotinib” (SUN PHARMACEUTICAL INDUSTRIES LIMITED, priority 2013, dated 2017).

Assays:
[1] = Class IV means low/moderate aqueous solubility and low permeability
[2] = 25° C., pH 4.5 and higher

Cc1cn(-c2cc(NC(=O)c3ccc(C)c(Nc4nccc(-c5cccnc5)n4)c3)cc(C(F)(F)F)c2)cn1 [Nilotinib, 4-methyl-N-[3-(4-methyl-1H-imidazol-1-yl)-5-(trifluoromethyl)phenyl]-3-[[4-(3-pyridinyl)-2-pyrimidinyl]amino]-benzamide]
Biopharmaceutical Classification System (BCS) class [1]: Class IV
solubility in aqueous solutions [2]: practically insoluble
